How the values were obtained:
[1] = system: intracellular HDAC activity; experiment: Intracellular HDAC activity, non-lytic HDAC-Glo I/II assay in HEK293 and K562 cells; assay type: cell-based; details: PBI-5040 relative to SAHA, 2 h
Experimental: HEK293 cells were plated into a 96-well plate at 1×10^5 cell/ml, and 24 h later, the media was replaced with serum free media. K562 cells were plated in serum free media (96-well plate) at 2×10^5 cells/ml.

[2] = system: HaloTag® protein; experiment: Binding efficiency/kinetics to HaloTag protein in cells (cell permeability; chase with fluorescent HaloTag ligand, SDS-PAGE); assay type: cell-based; details: SAHA-chloroalkane conjugates, 10 μM, 0-180 min; HaloTag localized to cytoplasm or nucleus; compared with PBI-5231 (O6)
Experimental: b) Binding efficiency to HaloTag® protein in cells was measured by adding the methotrexate-chloroalkane conjugates to cells expressing a HaloTag® protein to a final concentration of 10 μM. Following 0-120 mins of binding, the reactions were chased with 5 μM fluorescent HaloTag® ligand. Unbound HaloTag® protein was detected through binding to the fluorescent HaloTag® ligand followed by cell lysis, analysis on a SDS-PAGE gel and detection on a fluorescent gel scanner.
b) Binding efficiency to HaloTag® protein in cells was measured by adding the dexamethasone-chloroalkane conjugates to cells expressing a HaloTag® protein to a final concentration of 10 μM. Following 0-60 mins of binding, the reaction was chased with 5 μM fluorescent HaloTag ligand. Unbound HaloTag® protein was detected through binding to the fluorescent HaloTag® ligand followed by cell lysis, analysis on SDS-PAGE gel and detection on a fluorescent gel scanner.
b) Binding kinetics to HaloTag® protein in cells was measured by adding the modified BIRB796-chloroalkane conjugates to cells expressing a HaloTag® protein at a final concentration of 10 μM. Following 0-60 min of binding, the reactions were chased with 5 μM fluorescent HaloTag® ligand. Unbound HaloTag® protein was detected through binding to the fluorescent HaloTag® ligand followed by cell lysis, analysis on SDS-PAGE and detection on a fluorescent gel scanner.
Following 0-180 min of binding, the reactions were chased with 5 μM fluorescent HaloTag® ligand. Unbound HaloTag® protein was detected through binding to the fluorescent HaloTag® ligand followed by cell lysis, analysis on SDS-PAGE and detection on a fluorescent gel scanner.
b) Binding kinetics to HaloTag® protein in cells was measured by adding the dasatinib-chloroalkane conjugates (final concentration of 10 μM) to cells expressing a HaloTag protein which localized to the cytoplasm or the nucleus. Following 0-90 min of binding, the reactions were chased with 5 μM fluorescent HaloTag® ligand. Unbound HaloTag® protein was detected through binding to the fluorescent HaloTag® ligand followed by cell lysis, analysis on SDS-PAGE and detection on a fluorescent gel scanner.

[3] = system: HaloTag® protein; experiment: Binding efficiency/kinetics to HaloTag protein in cell lysate (chase with fluorescent HaloTag ligand, SDS-PAGE); details: SAHA-chloroalkane conjugates, 1 μM, 0-60 min; compared with PBI-5231 (O6)
Experimental: (§1) a) Binding efficiency to HaloTag® protein in lysate was measured by adding the methotrexate-chloroalkane conjugates to lysate from cells expressing a HaloTag® protein to a final concentration of 1 μM. Following 0-60 mins of binding, the reactions were chased with 1 μM fluorescent HaloTag® ligand. Unbound HaloTag® protein was detected through binding to the fluorescent HaloTag® ligand followed by analysis on SDS-PAGE gel and detection on a fluorescent gel scanner.
as §1, with “adding the dexamethasone-chloroalkane conjugates to” for “adding the methotrexate-chloroalkane conjugates to”, “the fluorescent HaloTag ligand followed” for “the fluorescent HaloTag® ligand followed”
a) Binding kinetics to HaloTag® protein in cell lysate was measured by adding the modified BIRB796-chloroalkane conjugates to lysate from cells expressing a HaloTag® protein at a final concentration of 1 μM. After 0-60 min of binding, the reactions were chased with 1 μM fluorescent HaloTag® ligand (Promega Corporation). Unbound HaloTag® protein was detected through binding to the fluorescent HaloTag® ligand followed by analysis on SDS-PAGE and detection on a fluorescent gel scanner.
Following 0-60 min of binding, the reactions were chased with 1 μM fluorescent HaloTag® ligand. Unbound HaloTag® protein was detected through binding to the fluorescent HaloTag® ligand followed by analysis on SDS-PAGE and detection on a fluorescent gel scanner.
a) Binding kinetics to HaloTag® protein in cell lysate was measured by adding the dasatinib-chloroalkane conjugates to lysate (final concentration of 1 μM) from cells expressing a HaloTag® protein. Following 0-60 min of binding, the reactions were chased with 1 μM fluorescent HaloTag® ligand. Unbound HaloTag® protein was detected through binding to the fluorescent HaloTag® ligand followed by analysis on SDS-PAGE and detection on a fluorescent gel scanner.

[4] = system: all known target of SAHA (HDAC1, HDAC2, HDAC3, HDAC6, HDAC8, HDAC10); experiment: Pull-down of endogenous targets from K562 cells onto HaloTag protein beads, Western blot and mass spec analysis; assay type: cell-based
Experimental: K562 cells were plated into 150 mm dishes at 1.66×10^6 cell/ml (total of 5×10^7 cells per dish). […] Following equilibrium binding of 2 h, the media was removed; cells were quickly washed with PBS; cells lysed in a detergent-based lysis buffer for 10 min and centrifuged at 3000×g for 1 min. Clear lysates were then added to 75 ul of settled paramagnetic HaloTag® protein beads and incubated with shaking for 15 min. […] The released targets were subjected to mass spec analysis (FIG. 14B) as well as western blot analysis (FIG. 14A) with anti-HDAC1 antibody (ABCAM), anti-HDAC2 antibody (ABCAM), anti-HDAC6 antibody (Millipore), anti-HDAC3 antibody (Thermo Fisher), anti-HDAC10 (ABCAM) and anti-HDAC8 antibody (Rockland).

## O=C(CCCCCCC(=O)Nc1ccc(CNC(=O)OCCOCCOCCOC(=O)NCCOCCOCCCCCCCl)cc1)NO [PBI-5040, SAHA-Carbamate]
[1]
  reduction in SAHA potency due to the chloroalkane modification: ~2 fold
[2]
  permeability/binding kinetics to HaloTag protein in cells: significantly faster permeability/binding kinetics
[3]
  binding kinetics to HaloTag protein in cell lysate: significantly faster binding kinetics
[4]; 20 uM, 2 h, beads 15 min, release with 400 μM SAHA
  pull-down of endogenous SAHA targets incl. low affinity (HDAC8) and low abundance (HDAC3) target: specifically pulled down
[4]; inferred from pull down of nuclear (HDAC1) and cytoplasmic (HDAC 6) proteins
  cellular permeability: high

Reference: patent US11072812B2, “Substrates for covalent tethering of proteins to functional groups or solid surfaces” (PROMEGA CORPORATION, priority 2013, dated 2021)
